Test results published in publication PMC3017850, “Significance of Cuscutain, a cysteine protease from Cuscuta reflexa, in host-parasite interactions” (BMC Plant Biology, 2010).
Peptide text beside a SMILES is read from it. * marks the point of attachment. pNA = O=[N+]([O-])c1ccc(N*)cc1; Cbz = O=C(OCc1ccccc1)*

Test system: cuscutain
Assay: colorimetric release of para-nitroaniline at […] nm; Hanes-Woolf plot
Type: biochemical, Cuscuta reflexa
Details: pH 7.5; 30 °C (50 mM Tris, 300 mM NaCl) or 37 °C (0.1 M Na-citrate, 20% ethanol), both printed

`N=C(N)NCCC[C@H](NC(=O)[C@H](Cc1ccccc1)NC(=O)OCc1ccccc1)C(=O)Nc1ccc([N+](=O)[O-])cc1` [Cbz-Phe-Arg-pNA] (Cbz-Phe-Arg-pNA) was tested, and the Km was 393 ± 20 µM.
